Drawing on ChEMBL document CHEMBL4004847, “New tacrine-derived AChE/BuChE inhibitors: Synthesis and biological evaluation of 5-amino-2-phenyl-4H-pyrano[2,3-b]quinoline-3-carboxylates” (Eur J Med Chem, 2017), this text covers IC50, Activity and Ki for 16 compounds.

In brackets after ≈: the same amount, converted by molar mass. Activity calls are given as the source filed them. No cut-off for these calls is given here. A value given as a limit tells only on which side of the number the result lay.

The target in one assay is Cholinesterase (Homo sapiens, UniProt P06276).
Cholinesterase, sequence (P06276 whole entry): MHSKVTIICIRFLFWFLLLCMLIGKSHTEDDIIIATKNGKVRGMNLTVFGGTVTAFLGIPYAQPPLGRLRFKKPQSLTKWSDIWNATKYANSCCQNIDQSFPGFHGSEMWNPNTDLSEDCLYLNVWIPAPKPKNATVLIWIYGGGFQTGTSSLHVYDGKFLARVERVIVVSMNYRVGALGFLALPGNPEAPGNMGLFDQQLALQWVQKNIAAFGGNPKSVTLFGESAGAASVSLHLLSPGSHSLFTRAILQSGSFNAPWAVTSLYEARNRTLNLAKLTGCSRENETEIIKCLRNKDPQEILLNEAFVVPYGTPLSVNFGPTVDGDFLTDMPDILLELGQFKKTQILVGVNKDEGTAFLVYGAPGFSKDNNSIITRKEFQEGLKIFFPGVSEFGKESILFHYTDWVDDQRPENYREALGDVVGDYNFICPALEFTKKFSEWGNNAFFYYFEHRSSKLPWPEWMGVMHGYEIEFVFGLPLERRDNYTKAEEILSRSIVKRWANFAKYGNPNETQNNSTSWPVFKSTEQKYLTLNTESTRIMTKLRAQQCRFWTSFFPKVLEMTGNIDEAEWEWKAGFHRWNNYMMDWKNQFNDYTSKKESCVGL
For assay [1], the target named is T1, Acetylcholinesterase (Electrophorus electricus, UniProt O42275).
T1 sequence (O42275 whole entry): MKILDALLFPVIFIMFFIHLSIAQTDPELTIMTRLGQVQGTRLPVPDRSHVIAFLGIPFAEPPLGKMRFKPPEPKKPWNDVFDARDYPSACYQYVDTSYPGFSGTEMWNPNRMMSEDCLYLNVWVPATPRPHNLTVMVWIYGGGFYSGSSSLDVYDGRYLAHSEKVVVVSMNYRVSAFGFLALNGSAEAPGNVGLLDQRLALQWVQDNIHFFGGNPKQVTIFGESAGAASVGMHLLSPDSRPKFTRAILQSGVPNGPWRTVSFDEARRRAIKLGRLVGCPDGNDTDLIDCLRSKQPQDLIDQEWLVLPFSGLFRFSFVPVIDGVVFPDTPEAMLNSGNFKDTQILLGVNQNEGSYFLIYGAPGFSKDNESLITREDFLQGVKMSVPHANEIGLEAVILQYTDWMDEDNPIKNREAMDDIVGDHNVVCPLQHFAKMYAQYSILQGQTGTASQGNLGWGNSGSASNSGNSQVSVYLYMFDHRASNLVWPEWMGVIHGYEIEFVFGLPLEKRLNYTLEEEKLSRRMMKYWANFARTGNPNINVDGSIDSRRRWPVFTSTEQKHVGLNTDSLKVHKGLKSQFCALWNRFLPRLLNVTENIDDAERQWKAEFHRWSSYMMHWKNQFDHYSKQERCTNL
Description: Inhibition of electric eel AChE using acetylthiocholine iodide as substrate preincubated for 5 mins followed by substrate addition measured for 1 min by Ellman's method
Another assay concerns HepG2. As to the kind of experiment: cells. Conditions: Homo sapiens, HepG2, 24 h.
The test system of assay [2] is PC-12. As to the kind of experiment: Neuroprotective activity against H2O2-induced cell death in rat PC12 cells assessed as increase in cell viability at 100 uM preincubated for 3 hrs followed by H2O2 addition measured after 24 hrs by MTT assay. Format: functional, cell-based. (In general: Tetrazolium dyes change colour on reduction, which living cells bring about.)

Assay [3] deals with T1, Acetylcholinesterase. As to the kind of experiment: Mixed-type inhibition of electric eel AChE preincubated for 5 mins followed by varying levels acetylthiocholine iodide substrate addition by Lineweaver-Burk plot analysis.
The subject of assay [4] is PC-12. As to the kind of experiment: Neuroprotective activity against H2O2-induced cell death in rat PC12 cells assessed as increase in cell viability at 10 uM preincubated for 3 hrs followed by H2O2 addition measured after 24 hrs by MTT assay. Format: functional, cell-based.

Description for HepG2: Cytotoxicity against human HepG2 cells assessed as reduction in cell viability after 24 hrs by MTT assay

With `CCOC(=O)C1=C(c2ccccc2)Oc2nc3c(c(N)c2C1c1ccc(C)cc1)CCCC3` (stereo not drawn), the figures for the IC50 against Cholinesterase and at Acetylcholinesterase [1] were 54100 nM and 4160 nM, respectively.

For the compound `CCOC(=O)C1=C(c2ccccc2)Oc2nc3c(c(N)c2C1c1cccc(F)c1)CCCC3` (stereo not drawn), the figures for the IC50 against Cholinesterase and against Acetylcholinesterase [1] were 11700 nM and 778 nM, respectively.

Consider `CCOC(=O)C1=C(c2ccccc2)Oc2nc3c(c(N)c2C1c1ccc(F)cc1)CCCC3` (stereo not drawn), for which the IC50 (as a rule, the concentration that gives 50% inhibition) at Cholinesterase came out at 6100 nM; against Acetylcholinesterase [1] it was 404 nM.

On to `CCOC(=O)C1=C(c2ccccc2)Oc2nc3c(c(N)c2C1c1ccccc1F)CCCC3` (stereo not drawn), for which the IC50 on Cholinesterase turned out to be 3630 nM; at Acetylcholinesterase [1], 370 nM.

On to `CCOC(=O)C1=C(c2ccccc2)Oc2nc3c(c(N)c2C1c1cccc(OC)c1)CCCC3` (stereo not drawn), for which the figures for the IC50 at Cholinesterase and against Acetylcholinesterase [1] were 7140 nM and 510 nM, respectively.

Regarding `CCOC(=O)C1=C(c2ccccc2)Oc2nc3c(c(N)c2C1c1ccc(Cl)cc1Cl)CCCC3` (stereo not drawn), the IC50 at Cholinesterase stood at 22700 nM; at Acetylcholinesterase [1], 1620 nM.

Consider `CCOC(=O)C1=C(c2ccccc2)Oc2nc3c(c(N)c2C1c1ccccc1Br)CCCC3` (stereo not drawn), for which the IC50 in the assay on HepG2 is > 100 µg/mL; on Cholinesterase it was 2760 nM; on Acetylcholinesterase [1], 118 nM. Also, the outcome in the assay on PC-12 [2] was Active.

Turning to `CCOC(=O)C1=C(c2ccccc2)Oc2nc3c(c(N)c2C1c1cccc([N+](=O)[O-])c1)CCCC3` (stereo not drawn), the IC50 in the assay on HepG2 is > 100 µg/mL; on Cholinesterase it was 40900 nM; on Acetylcholinesterase [1], 2730 nM.

Consider `CCOC(=O)C1=C(c2ccccc2)Oc2nc3c(c(N)c2C1c1cccc(Br)c1)CCCC3` (stereo not drawn), for which the IC50 is 72.8 µg/mL (≈ 144 µM) in the assay on HepG2, 1350 nM against Cholinesterase and 69 nM against Acetylcholinesterase [1]. Also, the affinity on Acetylcholinesterase [3] corresponds to a Ki of 48.5 nM. Besides, the result in the assay with PC-12 [2] was Active.

On to `CCOC(=O)C1=C(c2ccccc2)Oc2nc3c(c(N)c2C1c1ccccc1Cl)CCCC3` (stereo not drawn), for which the result in the assay on PC-12 [4] and in the assay on PC-12 [2] was Active. In addition, the IC50 in the assay on HepG2 was > 100 µg/mL; against Cholinesterase it was 2140 nM; on Acetylcholinesterase [1], 153 nM.

In the case of `CCOC(=O)C1=C(c2ccccc2)Oc2nc3c(c(N)c2C1c1ccccc1)CCCC3` (stereo not drawn), the IC50 at Cholinesterase came to 5490 nM; on Acetylcholinesterase [1] it was 423 nM.

Take `CCOC(=O)C1=C(c2ccccc2)Oc2nc3c(c(N)c2C1c1ccc([N+](=O)[O-])cc1)CCCC3` (stereo not drawn): the IC50 turned out to be 9910 nM against Cholinesterase and 583 nM against Acetylcholinesterase [1].

Turning to `CCOC(=O)C1=C(c2ccccc2)Oc2nc3c(c(N)c2C1c1ccc(Cl)cc1)CCCC3` (stereo not drawn), the values for the IC50 on Cholinesterase and against Acetylcholinesterase [1] were 17600 nM and 1100 nM, respectively.

`CCOC(=O)C1=C(c2ccccc2)Oc2nc3c(c(N)c2C1c1ccc(OC)cc1)CCCC3` (stereo not drawn): the IC50 came to 5760 nM at Cholinesterase and 480 nM on Acetylcholinesterase [1].

With `CCOC(=O)C1=C(c2ccccc2)Oc2nc3c(c(N)c2C1c1cccc(Cl)c1)CCCC3` (stereo not drawn), the IC50 with HepG2 was found to be 50.4 µg/mL (≈ 109 µM); at Cholinesterase, 3100 nM; on Acetylcholinesterase [1], 228 nM. The result in the assay with PC-12 [2] was Active.

On to `CCOC(=O)C1=C(c2ccccc2)Oc2nc3c(c(N)c2C1c1ccc(Br)cc1)CCCC3` (stereo not drawn), for which the IC50 on Cholinesterase stood at 74200 nM; at Acetylcholinesterase [1] it was 6220 nM.
